Patent US20100233746A1, “Inflammation and Oxidative Stress Level Assay” (priority 2007, published 2010)

Tested on: rats
Assay: nephrotoxicity model: eicosanoids in plasma of rats receiving puromycin, LC-MS/MS
Assay type: in vivo
Details: 4 groups receiving different dosages of puromycin, FIG. 4
Procedure: To determine free fatty acid metabolites in various biological materials, a small amount of sample (20 μL) was applied onto a filter spot containing stable isotopes for the various metabolites in a microtiter plate and extracted in aqueous methanol without further derivatization as described in FIG. 1. Separation of metabolites was done on a RP-HPLC (Zorbax Eclipse C18, 3.0×100 mm, 3.5 μm) column after injection of 20 μL extract using an Agilent 1100 system (Agilent Technologies) with an HTC PAL autosampler (CTC Analytics). Mobile phase compositions were A: H2O with 0.05% (v/v) formic acid and B: acetonitrile with 0.05% (v/v) formic acid. Flow rate was constant at 500 μL/min, metabolites were separated by gradient elution. Detection was done by MRM transitions in negative detection mode using an API4000Qtrap® equipped with an ESI source (Applied Biosystems). Quantification of metabolites was performed with Analyst v.1.4.2 quantitation.
Test cases of disease states show an increase of free fatty acids, prostaglandins and hydroxylated species in conjunction with pulmonary inflammations, prostate cancer and cardiovascular disease. […]
Plasma samples obtained from 4 groups of rats receiving different dosages of puromycin were analyzed.
FIGS. 4a, 4b, 4c and 4d. […] The concentrations of 4 different eicosanoids (as indicated) in rat plasma samples have been determined and normalized.

COc1ccc(C[C@H](N)C(=O)N[C@H]2[C@@H](O)[C@H](n3cnc4c(N(C)C)ncnc43)O[C@@H]2CO)cc1 [puromycin]
cyclooxygenase and lipoxygenase activity (concentrations of 4 different eicosanoids in rat plasma, normalized): Increased cyclooxygenase and lipoxygenase activity
